{"source": "patent US6242442A", "about": "(Alcon Laboratories, Inc., priority 2000, dated 2001)", "key": {"[1]": {"system": "blood flow to the iris, ciliary processes, optic nerve, or retina", "conditions": "topical, rabbits; Sugrue et al. 1996; cited from earlier work"}, "[2]": {"assay": "Distribution coefficient (octanol/water determined at pH 7.4)", "type": "physicochemical"}, "[3]": {"system": "ocular blood flow", "conditions": "cited from earlier work"}, "[4]": {"system": "ocular blood flow", "conditions": "cited from earlier work", "remark": "listed apart in the source"}, "[5]": {"system": "optic nerve head", "assay": "Optic nerve head blood flow by LDF in anesthetized rabbits, intravenous", "type": "in vivo, New Zealand albino rabbits", "conditions": "intravenous 0.5, 2.5, and 5 mg/kg", "from_the_text": "(§1) In this experiment it was also possible to compare blood flows of the normal eye to the contralateral eye that was mildly hypofused due to unilateral carotid occlusion."}, "[6]": {"system": "intraocular pressure (IOP)", "assay": "Intraocular pressure, one-week multidose topical crossover study in rabbits", "type": "in vivo, Dutch-Belted rabbits", "conditions": "2% suspension topical, one drop twice daily, 90 minutes after last dose, p<0.05 versus vehicle, p<0.001 versus baseline", "method": "(§2) Treatment measurements were made 90 minutes after the last dose on day eight. Optic nerve head blood flow and measured systemic variables were not changed by vehicle treatment. […] It is established that the vasculature of the ONH responds to increases in arterial O2 or CO2 tension by a reduction or an enhancement of ONH blood flow respectively."}, "[7]": {"assay": "Acid-base balance and arterial gases, one-week multidose topical crossover study in rabbits", "type": "in vivo, Dutch-Belted rabbits", "conditions": "2% suspension topical, one drop twice daily", "method": "as §2"}, "[8]": {"system": "ocular tissues", "assay": "Ocular blood flow by colored microsphere technique in anesthetized rabbits, intravenous", "type": "in vivo, New Zealand albino rabbits", "conditions": "for increase in total ocular blood flow, hypofused eyes: unilateral carotid occlusion", "from_the_text": "as §1"}, "[9]": {"system": "retina", "assay": "Tissue distribution after single topical ocular dose of 14C-brinzolamide, NZW rabbits", "type": "in vivo, New Zealand Albino (NZW) rabbits"}, "[10]": {"system": "retina", "assay": "Tissue distribution after single topical ocular dose of 14C-brinzolamide, Dutch belted rabbits", "type": "in vivo"}, "[11]": {"system": "intraocular pressure", "conditions": "ocular hypertension and glaucoma; cited from earlier work"}, "[12]": {"system": "optic nerve head (ONH)", "assay": "Optic nerve head blood flow by laser Doppler flowmetry in cats", "type": "in vivo, cat"}, "[13]": {"system": "optic nerve head (ONH)", "assay": "Optic nerve head blood flow by LDF, one-week multidose topical crossover study in rabbits", "type": "in vivo, Dutch-Belted rabbits", "conditions": "2% suspension topical, one drop twice daily, 90 minutes after last dose, mean±SEM, p<0.05", "method": "as §2"}, "[14]": {"system": "scleral vessels; vessels in the back of the eye", "conditions": "topical ocular administration; cited from earlier work"}, "[15]": {"conditions": "topical, some patients; cited from earlier work"}, "[16]": {"system": "α2", "conditions": "cited from earlier work"}, "[17]": {"system": "IOP", "conditions": "rabbits, monkeys and man; cited from earlier work"}, "[18]": {"system": "ocular and cerebral blood flow", "conditions": "oral and i.v. administration, relatively high dosages; cited from earlier work"}, "[19]": {"conditions": "in words; cited from earlier work"}, "[20]": {"conditions": "octanol/water, pH 7.4; in words; cited from earlier work"}, "[21]": {"conditions": "read-out: distribution coefficient (converted)"}, "[22]": {"conditions": "retina, single topical ocular dose of 1% 14C-brinzolamide"}}, "note": "Where two headings read alike, the source gives them in different places.", "data": [{"compound": "CCN[C@H]1C[C@H](C)S(=O)(=O)c2sc(S(N)(=O)=O)cc21", "note": "[dorzolamide]", "values": [{"measurement": "blood flow to the iris, ciliary processes, optic nerve, or retina", "setting": "[1]", "result": "does not decrease blood flow"}, {"measurement": "logD", "setting": "[2]; [21]", "result": 0.236}, {"measurement": "blood velocity in the retina and superficial optic nerve head", "setting": "[3]; Harris et al. 1996", "result": "accelerated blood velocity in the retina and superficial optic nerve head"}, {"measurement": "choroidal pressure flow relationships", "setting": "[3]; Shipman et al. 1997", "result": "did not alter the choroidal pressure flow relationships"}, {"measurement": "peripapillary blood flow", "setting": "[3]; topical, Koller et al. 1997", "result": "did not change peripapillary blood flow"}, {"measurement": "ocular blood flow", "setting": "[3]; topical, Sponsel 1996, 1997", "result": "positive effect on ocular blood flow"}, {"measurement": "artereovenous passage time", "setting": "[4]; healthy subjects, WO 96/37203", "result": "accelerated artereovenous passage time"}, {"measurement": "optic nerve head velocity", "setting": "[4]; healthy subjects, WO 96/37203", "result": "increase in optic nerve head velocity"}, {"measurement": "retinal vein blood flow", "setting": "[4]; normal volunteers, Gruenwald et al. 1997", "result": "no effect on retinal vein blood flow"}, {"measurement": "optic nerve head blood flow", "setting": "[4]; topical, healthy subjects, Pillunat et al. 1997", "result": "did not alter optic nerve head blood flow"}]}, {"compound": "CCN[C@H]1CN(CCCOC)S(=O)(=O)c2sc(S(N)(=O)=O)cc21", "note": "[brinzolamide, R-(+)-4ethylamino-3,4-dihydro-2-(3-methoxy)propyl-2H thieno[3,2,e]1,2thiazene-6sulfonamide-1,1dioxide]", "values": [{"measurement": "optic nerve head blood flow", "setting": "[5]", "result": "increased above baseline"}, {"measurement": "decrease of IOP", "setting": "[6]", "result": "16.8±2.2", "unit": "%"}, {"measurement": "disturbance of acid-base balance", "setting": "[7]", "result": "Minimal disturbance of acid-base balance"}, {"measurement": "regional blood flows to the hypofused eye", "setting": "[8]; highest intravenous dose", "result": "returned regional blood flows to the hypofused eye to baseline levels found in the normal eye"}, {"measurement": "tissues with greatest percentage blood flow increase, hypofused eye", "setting": "[8]; intravenous", "result": "greatest to iridial, ciliary, and choroidal tissues, respectively"}, {"measurement": "increase in total ocular blood flow, normal eyes", "setting": "[8]; intravenous 0.5 mg/kg", "result": 29, "unit": "%"}, {"measurement": "increase in total ocular blood flow, hypofused eyes", "setting": "[8]; intravenous 0.5 mg/kg", "result": 21, "unit": "%"}, {"measurement": "increase in total ocular blood flow, normal eyes", "setting": "[8]; intravenous 2.5 mg/kg", "result": 68, "unit": "%"}, {"measurement": "increase in total ocular blood flow, hypofused eyes", "setting": "[8]; intravenous 2.5 mg/kg", "result": 64, "unit": "%"}, {"measurement": "increase in total ocular blood flow, normal eyes", "setting": "[8]; intravenous 5 mg/kg", "result": 90, "unit": "%"}, {"measurement": "increase in total ocular blood flow, hypofused eyes", "setting": "[8]; intravenous 5 mg/kg", "result": 90, "unit": "%"}, {"measurement": "total ocular blood flow", "setting": "[8]; intravenous 0.5, 2.5, and 5 mg/kg", "result": "significant dose-related increase"}, {"measurement": "Cmax", "setting": "[9]; [22]", "result": "0.330 ?g equivalents/g"}, {"measurement": "Tmax in the retina", "setting": "[9]; single topical ocular dose of 1% 14C-brinzolamide", "result": 20, "unit": "days"}, {"measurement": "redistribution into the retina", "setting": "[9]; topical ocular", "result": "slowly redistribute into the retina"}, {"measurement": "Cmax", "setting": "[10]; [22]", "result": "0.338 ?g equivalents/g"}, {"measurement": "redistribution into the retina", "setting": "[10]; topical ocular", "result": "slowly redistribute into the retina"}, {"measurement": "lowering of elevated intraocular pressure", "setting": "[11]", "result": "effective in lowering the elevated intraocular pressure"}, {"measurement": "logD", "setting": "[2]; [21]", "result": 0.817}, {"measurement": "increase in ONH blood flow over control group", "setting": "[12]; 1% topical, one drop twice a day, one week, spontaneously breathing cats, average of two measurements", "result": 21.8, "unit": "%"}, {"measurement": "increase in ONH blood flow", "setting": "[12]; 60 minutes following single topical dose, anesthetized ventilated cats", "result": "16.5%±8%"}, {"measurement": "increase in ONH blood flow", "setting": "[12]; intravenous, p≤0.05", "result": "46±17", "unit": "%"}, {"measurement": "increase in ONH blood flow", "setting": "[13]", "result": "11.2±1.6", "unit": "%"}]}, {"compound": "Brc1c(NC2=NCCN2)ccc2nccnc12", "note": "[brimonidine, (5-bromo-6-2-imidzolidisnylideneamino) quinozoline L-tartrate]", "values": [{"measurement": "vasoconstriction in scleral vessels", "setting": "[14]", "result": "causes vasoconstriction in scieral vessels"}, {"measurement": "vasoconstriction in vessels in the back of the eye", "setting": "[14]", "result": "does not appear to be a vasoconstrictor in vessels in the back of the eye"}, {"measurement": "side effects", "setting": "[15]", "result": "sedation and ocular hyperemia in an allergic like reaction in some patients"}, {"measurement": "α2 agonist activity and selectivity", "setting": "[16]", "result": "potent and relatively selective α2 agonist"}, {"measurement": "lowering of IOP", "setting": "[17]", "result": "effectively lower IOP in rabbits, monkeys and man"}]}, {"compound": "CC(=O)Nc1nnc(S(N)(=O)=O)s1", "note": "[acetazolamide]", "values": [{"measurement": "ocular and cerebral blood flow", "setting": "[18]", "result": "increase both ocular and cerebral blood flow"}, {"measurement": "half-life in whole blood", "setting": "[19]", "result": "relatively short half-lives in whole blood"}]}, {"compound": "CC(=O)/N=c1/sc(S(N)(=O)=O)nn1C", "note": "[methazolamide]", "values": [{"measurement": "distribution coefficient", "setting": "[20]", "result": "low distribution coefficients"}, {"measurement": "ocular and cerebral blood flow", "setting": "[18]", "result": "increase both ocular and cerebral blood flow"}, {"measurement": "logD", "setting": "[2]", "result": -0.194}, {"measurement": "half-life in whole blood", "setting": "[19]", "result": "relatively short half-lives in whole blood"}]}]}
